{
  "source": "patent US20080318792A1",
  "about": "“Extension of pollination period” (priority 2007, published 2008)",
  "assay_type_in_all_cases": "in vivo",
  "key": {"[1]": {"tested_on": "Hughes 1883 hybrid corn seed", "assay": "Soil germination/emergence of corn seed treated with different forms of ABA in slurry", "details": "for delay: treatments with ABA vs control; for Final emergence / QR / T50: 25 g/cwt as free acid", "protocol": "Three forms of ABA were evaluated in this experiment 1) free acid, 2) ammonium salt, and 3) sodium salt. The cation is referred to as the “counter-ion” below. […] The treatments were made up in 3 ml samples of experimental aqueous seed treatment slurry. All of the seed treatment slurry samples contained CF-Clear film-forming agent and Colorcoat Red (Becker Underwood), each at 1 oz/cwt, and 0.167 oz/cwt Maxim XL fungicide (Syngenta). The slurry application volume was 20 oz/cwt (cwt=100 lbs of seed).\nOne hundred gram samples of Hughes 1883 hybrid corn seed were treated with the experimental slurries using a Hege 11 seed treater with a six-inch bowl.\nThe seed was planted in plastic boxes containing 1 kg of typical agricultural silt loam. Fifty seeds were planted 3 cm deep in each plastic box, and the soil in the box was adjusted to 21% soil moisture (wet-weight basis). Two replications of the experiment were incubated under constant light in a 25° C. chamber and two replications incubated under constant light in an 18° C. chamber. The boxes were watered up to the correct weight daily, and checked for emergence. Daily counts of seedlings were continued until emergence ceased. The final count of emerged seedlings was expressed as a percentage of the 50 seeds planted (GERM).\nThe daily counts were converted to proportions of the final germination of the box, and a Gompertz curve was fitted to the data from each box using SAS Proc NLIN. From the parameters of the model, median germination time (T50) and quartile range (QR) were estimated for each box. Analysis of variance was performed and means calculated for each of the three responses (GERM, T50, QR)."}, "[2]": {"tested_on": "commercial inbred sorghum lines", "assay": "Soil emergence of sorghum inbreds after ABA seed treatment", "details": "for Emergence / Median time to emergence / Quartile range: soil 20/30° C.", "protocol": "Seed of four commercial inbred sorghum lines were obtained from a genetics supplier. These inbreds are representative of many male parents used in hybrid sorghum seed production. ABA in the form of the free acid was applied at rates of 0, 10, 25, 50 and 100 g/cwt. Application was performed as described under Example 2 above, except the Maxim XL (Syngenta) was applied at 0.334 oz/cwt, Allegiance FL (Bayer), was applied at 0.75 oz/cwt, and Thiram 42-S (Bayer) was applied at 3.5 oz/cwt, using a slurry rate of 25 oz/cwt. The seed was planted in soil in plastic boxes as described under Example 2, except at a depth of 2 cm., and incubated at 20/30° C. (AOSA Rules for Testing Seeds, 2005). Emergence was counted every 1-3 days and the data reduced as described under Example 2."}, "[3]": {"tested_on": "sweet corn seed (cv. Silver Queen)", "assay": "Germination of sweet corn seed on moist blotters at 15° C. after seed treatment", "details": "blotters 15° C.; for Coleoptile protrusion CGERM / Radicle protrusion RGERM: maximum by day 27", "protocol": "ABA acid and three analogs were dissolved in ethanol to produce the desired doses. […] Aliquotes (250 μl) of ethanol solutions of the agents were added to 10 g samples of the seed and the seeds were agitated and dried overnight. Germination tests were conducted on moist blotters at 15° C. in petri dishes. Four replications of 10 seeds each were performed.\nRadicle and coleoptile protrusion were counted approximately daily for 27 days. The maximum radical protrusion (RGERM) and maximum coleoptile protrusion (CGERM) were expressed as percentages from each dish. The daily counts were expressed as proportions of the protrusion maxima from each dish, and Gompertz curves were fitted to the protrusion data using SAS Proc NLIN. From the parameters of the models, median time to radicle protrusion (RT50), and median-time-to-coleoptile protrusion (CT50) were estimated for each dish. Analysis of variance was performed and means calculated for each of the four responses (RGERM, CGERM, RT50 and CT50)."}, "[4]": {"details": "sorghum inbred 43, ABA 10 g/cwt"}, "[5]": {"details": "sorghum inbred 43, ABA 25 g/cwt"}, "[6]": {"details": "sorghum inbred 43, ABA 50 g/cwt"}, "[7]": {"details": "sorghum inbred 43, ABA 100 g/cwt"}, "[8]": {"details": "sorghum inbred 44, ABA 10 g/cwt"}, "[9]": {"details": "sorghum inbred 44, ABA 25 g/cwt"}, "[10]": {"details": "sorghum inbred 44, ABA 50 g/cwt"}, "[11]": {"details": "sorghum inbred 44, ABA 100 g/cwt"}, "[12]": {"details": "sorghum inbred 45, ABA 10 g/cwt"}, "[13]": {"details": "sorghum inbred 45, ABA 25 g/cwt"}, "[14]": {"details": "sorghum inbred 45, ABA 50 g/cwt"}, "[15]": {"details": "sorghum inbred 45, ABA 100 g/cwt"}, "[16]": {"details": "sorghum inbred 46, ABA 10 g/cwt"}, "[17]": {"details": "sorghum inbred 46, ABA 25 g/cwt"}, "[18]": {"details": "sorghum inbred 46, ABA 50 g/cwt"}, "[19]": {"details": "sorghum inbred 46, ABA 100 g/cwt"}},
  "data": [
    {"molecule": "CC1=CC(=O)CC(C)(C)[C@@]1(O)/C=C/C(C)=C\\C(=O)O", "note": "[ABA, S-(+)-abscisic acid]", "values": [
      {"measurement": "delay as a fraction of the germination time of the control at the same temperature", "setting": "[1]; 18 and 25° C.", "result": "roughly doubling the time to emergence"},
      {"measurement": "delay", "setting": "[1]; 18° C.", "result": 5.8, "unit": "days"},
      {"measurement": "Final emergence", "setting": "[1]; soil 18° C.", "result": 97, "unit": "%"},
      {"measurement": "QR", "setting": "[1]; soil 18° C.", "result": 2.96, "unit": "days"},
      {"measurement": "T50", "setting": "[1]; soil 18° C.", "result": 11.4, "unit": "days"},
      {"measurement": "Final emergence", "setting": "[1]; soil 25° C.", "result": 96, "unit": "%"},
      {"measurement": "QR", "setting": "[1]; soil 25° C.", "result": 1.32, "unit": "days"},
      {"measurement": "T50", "setting": "[1]; soil 25° C.", "result": 7.7, "unit": "days"},
      {"measurement": "delay", "setting": "[1]; 25° C.", "result": 4.4, "unit": "days"},
      {"measurement": "median-time-to-germination", "setting": "[1]; regardless of counter-ion, 18 and 25° C., p<0.0001", "result": "increased"},
      {"measurement": "Quartile range", "setting": "[1]; regardless of counter-ion, 18 and 25° C., p<0.0002", "result": "increased"},
      {"measurement": "effect on emergence of sorghum inbreds", "setting": "[2]; ABA 10-100 g/cwt", "result": "progressively and significantly delayed emergence"},
      {"measurement": "Emergence", "setting": "[2]; [4]", "result": 94.0, "unit": "%"},
      {"measurement": "Median time to emergence", "setting": "[2]; [4]", "result": 5.1, "unit": "days"},
      {"measurement": "Quartile range", "setting": "[2]; [4]", "result": 1.5, "unit": "days"},
      {"measurement": "Emergence", "setting": "[2]; [5]", "result": 94.2, "unit": "%"},
      {"measurement": "Median time to emergence", "setting": "[2]; [5]", "result": 6.3, "unit": "days"},
      {"measurement": "Quartile range", "setting": "[2]; [5]", "result": 2.2, "unit": "days"},
      {"measurement": "Emergence", "setting": "[2]; [6]", "result": 87.2, "unit": "%"},
      {"measurement": "Median time to emergence", "setting": "[2]; [6]", "result": 8.6, "unit": "days"},
      {"measurement": "Quartile range", "setting": "[2]; [6]", "result": 3.7, "unit": "days"},
      {"measurement": "Emergence", "setting": "[2]; [7]", "result": 87.9, "unit": "%"},
      {"measurement": "Median time to emergence", "setting": "[2]; [7]", "result": 11.3, "unit": "days"},
      {"measurement": "Quartile range", "setting": "[2]; [7]", "result": 4.8, "unit": "days"},
      {"measurement": "Emergence", "setting": "[2]; [8]", "result": 79.0, "unit": "%"},
      {"measurement": "Median time to emergence", "setting": "[2]; [8]", "result": 5.7, "unit": "days"},
      {"measurement": "Quartile range", "setting": "[2]; [8]", "result": 2.6, "unit": "days"},
      {"measurement": "Emergence", "setting": "[2]; [9]", "result": 73.2, "unit": "%"},
      {"measurement": "Median time to emergence", "setting": "[2]; [9]", "result": 8.4, "unit": "days"},
      {"measurement": "Quartile range", "setting": "[2]; [9]", "result": 3.2, "unit": "days"},
      {"measurement": "Emergence", "setting": "[2]; [10]", "result": 71.3, "unit": "%"},
      {"measurement": "Median time to emergence", "setting": "[2]; [10]", "result": 10.7, "unit": "days"},
      {"measurement": "Quartile range", "setting": "[2]; [10]", "result": 4.6, "unit": "days"},
      {"measurement": "Emergence", "setting": "[2]; [11]", "result": 49.0, "unit": "%"},
      {"measurement": "Median time to emergence", "setting": "[2]; [11]", "result": 14.4, "unit": "days"},
      {"measurement": "Quartile range", "setting": "[2]; [11]", "result": 4.7, "unit": "days"},
      {"measurement": "Emergence", "setting": "[2]; [12]", "result": 81.3, "unit": "%"},
      {"measurement": "Median time to emergence", "setting": "[2]; [12]", "result": 5.4, "unit": "days"},
      {"measurement": "Quartile range", "setting": "[2]; [12]", "result": 1.5, "unit": "days"},
      {"measurement": "Emergence", "setting": "[2]; [13]", "result": 77.1, "unit": "%"},
      {"measurement": "Median time to emergence", "setting": "[2]; [13]", "result": 7.3, "unit": "days"},
      {"measurement": "Quartile range", "setting": "[2]; [13]", "result": 3.1, "unit": "days"},
      {"measurement": "Emergence", "setting": "[2]; [14]", "result": 54.1, "unit": "%"},
      {"measurement": "Median time to emergence", "setting": "[2]; [14]", "result": 10.6, "unit": "days"},
      {"measurement": "Quartile range", "setting": "[2]; [14]", "result": 3.5, "unit": "days"},
      {"measurement": "Emergence", "setting": "[2]; [15]", "result": 25.0, "unit": "%"},
      {"measurement": "Median time to emergence", "setting": "[2]; [15]", "result": 14.9, "unit": "days"},
      {"measurement": "Quartile range", "setting": "[2]; [15]", "result": 6.7, "unit": "days"},
      {"measurement": "Emergence", "setting": "[2]; [16]", "result": 89.2, "unit": "%"},
      {"measurement": "Median time to emergence", "setting": "[2]; [16]", "result": 5.7, "unit": "days"},
      {"measurement": "Quartile range", "setting": "[2]; [16]", "result": 2.6, "unit": "days"},
      {"measurement": "Emergence", "setting": "[2]; [17]", "result": 86.1, "unit": "%"},
      {"measurement": "Median time to emergence", "setting": "[2]; [17]", "result": 7.0, "unit": "days"},
      {"measurement": "Quartile range", "setting": "[2]; [17]", "result": 3.0, "unit": "days"},
      {"measurement": "Emergence", "setting": "[2]; [18]", "result": 86.2, "unit": "%"},
      {"measurement": "Median time to emergence", "setting": "[2]; [18]", "result": 8.8, "unit": "days"},
      {"measurement": "Quartile range", "setting": "[2]; [18]", "result": 3.9, "unit": "days"},
      {"measurement": "Emergence", "setting": "[2]; [19]", "result": 75.1, "unit": "%"},
      {"measurement": "Median time to emergence", "setting": "[2]; [19]", "result": 11.4, "unit": "days"},
      {"measurement": "Quartile range", "setting": "[2]; [19]", "result": 5.0, "unit": "days"},
      {"measurement": "Coleoptile protrusion CT50", "setting": "[3]; dose 10 ppm", "result": 9.70, "unit": "days"},
      {"measurement": "Radicle protrusion RT50", "setting": "[3]; dose 10 ppm", "result": 5.99, "unit": "days"},
      {"measurement": "Coleoptile protrusion CGERM", "setting": "[3]; dose 10 ppm", "result": 80.0, "unit": "%"},
      {"measurement": "Radicle protrusion RGERM", "setting": "[3]; dose 10 ppm", "result": 87.5, "unit": "%"},
      {"measurement": "Coleoptile protrusion CT50", "setting": "[3]; dose 100 ppm", "result": 12.80, "unit": "days"},
      {"measurement": "Radicle protrusion RT50", "setting": "[3]; dose 100 ppm", "result": 7.28, "unit": "days"},
      {"measurement": "Coleoptile protrusion CGERM", "setting": "[3]; dose 100 ppm", "result": 65.0, "unit": "%"},
      {"measurement": "Radicle protrusion RGERM", "setting": "[3]; dose 100 ppm", "result": 77.5, "unit": "%"},
      {"measurement": "Coleoptile protrusion CT50", "setting": "[3]; dose 1000 ppm", "result": 18.44, "unit": "days"},
      {"measurement": "Radicle protrusion RT50", "setting": "[3]; dose 1000 ppm", "result": 8.58, "unit": "days"},
      {"measurement": "Coleoptile protrusion CGERM", "setting": "[3]; dose 1000 ppm", "result": 22.5, "unit": "%"},
      {"measurement": "Radicle protrusion RGERM", "setting": "[3]; dose 1000 ppm", "result": 85.0, "unit": "%"}
    ]}
  ]
}
